“Also recorded” adds a separate entry of the source.
Assay: Phase 1/2 study in mCRPC participants: safety
[1] = all causality SAEs, Phases 1 and 2 combined, N = 47
[2] = all-causality TEAEs, Phase 1, N = 34

COc1cc(O[C@H]2C(C)(C)[C@H](NC(=O)c3ccc(N4CCC(CN5CCN(c6ccc(C(=O)N[C@H]7CCC(=O)NC7=O)c(F)c6)CC5)CC4)cc3)C2(C)C)ccc1C#N [Compound A, 4-(4-((1-(4-(((1R,3R)-3-(4-cyano-3-methoxyphenoxy)-2,2,4,4-tetramethylcyclobutyl)carbamoyl)phenyl)piperidin-4-yl)methyl)piperazin-1-yl)-N—((S)-2,6-dioxopiperidin-3-yl)-2-fluorobenzamide]
DLTs (Part A (Phase 1 dose escalation), 20 mg to 500 mg QD): No DLTs have been reported | Grade 4 or 5 TRAEs (Phase 1): no Grade 4 or 5 TRAEs | TRAE of Grade 3 aspartate aminotransferase increased (Phase 1): 1 | TRAE of Grade 3 fatigue (Phase 1): 1 | participants who discontinued study treatment due to a TEAE (Phase 1): No participant | treatment discontinuation due to TRAE (Phase 1): no treatment discontinuation | participants with treatment-emergent SAEs regardless of attribution (Phase 1, of 34): 11 participants | tolerability (Phase 1/2, post-NHA mCRPC patients, 40 mg to 500 mg once daily): well-tolerated; also recorded: well tolerated | treatment-related SAEs (Phase 1 and Phase 2): No treatment-related SAEs were reported | grade of the majority of TRAEs (Phase 1 dose escalation and Phase 2 interim data): Grade 1/2 | SAEs (Phase 2): no SAEs were reported | TRAE abdominal pain (Phase 2): 2 (15.4%) participants | TRAE alopecia (Phase 2): 2 (15.4%) participants | TRAE dysgeusia (Phase 2): 2 (15.4%) participants | TRAE nausea (Phase 2): 2 (15.4%) participants | TRAE of Grade 3 abdominal pain (Phase 2): 1 | dose reductions due to a TRAE (Phase 2): two | treatment discontinuation due to a TRAE (Phase 2): one | participants who discontinued treatment due to a TEAE (Phase 2, Grade 3 abdominal pain, related): One | participants with TEAEs regardless of attribution (Phases 1 and 2, of 47): 44 participants | participants with TEAEs at least potentially related to Compound A (Phases 1 and 2 combined, of 47): 25 participants | Blood and lymphatic system disorders: Any Grade [1]: 1 participants | Blood and lymphatic system disorders: Grade 3 [1]: 0 participants | Blood and lymphatic system disorders: Grade 4 [1]: 1 (2.1) participants | Blood and lymphatic system disorders: Grade 5 [1]: 0 participants | Brain stem stroke: Any Grade [1]: 1 participants | Brain stem stroke: Grade 3 [1]: 0 participants | Brain stem stroke: Grade 4 [1]: 0 participants | Cystitis noninfective: Any Grade [1]: 1 participants | Cystitis noninfective: Grade 3 [1]: 1 participants | Cystitis noninfective: Grade 4 [1]: 0 participants | Cystitis noninfective: Grade 5 [1]: 0 participants | Diarrhoea: Any Grade [1]: 1 participants | Diarrhoea: Grade 3 [1]: 1 participants | Diarrhoea: Grade 4 [1]: 0 participants | Diarrhoea: Grade 5 [1]: 0 participants | Dyspnoea: Any Grade [1]: 1 participants | Dyspnoea: Grade 3 [1]: 1 participants | Dyspnoea: Grade 4 [1]: 0 participants | Dyspnoea: Grade 5 [1]: 0 participants | Febrile neutropenia: Any Grade [1]: 1 participants | Febrile neutropenia: Grade 3 [1]: 0 participants | Febrile neutropenia: Grade 5 [1]: 0 participants | Gastrointestinal disorders: Any Grade [1]: 1 participants | Gastrointestinal disorders: Grade 3 [1]: 1 participants | Gastrointestinal disorders: Grade 4 [1]: 0 participants | Gastrointestinal disorders: Grade 5 [1]: 0 participants | Grade 2 lethargy (SAE) [1]: one | Haematuria: Any Grade [1]: 1 participants | Haematuria: Grade 3 [1]: 1 participants | Haematuria: Grade 4 [1]: 0 participants | Haematuria: Grade 5 [1]: 0 participants | Hypoxia: Any Grade [1]: 1 participants | Hypoxia: Grade 3 [1]: 1 participants | Hypoxia: Grade 4 [1]: 0 participants | Hypoxia: Grade 5 [1]: 0 participants | Infections and infestations: Any Grade [1]: 2 participants | Infections and infestations: Grade 3 [1]: 2 participants | Infections and infestations: Grade 4 [1]: 0 participants | Infections and infestations: Grade 5 [1]: 0 participants | Lethargy: Any Grade [1]: 1 participants | Lethargy: Grade 3 [1]: 0 participants | Lethargy: Grade 4 [1]: 0 participants | Lethargy: Grade 5 [1]: 0 participants | Nervous system disorders: Any Grade [1]: 4 participants | Nervous system disorders: Grade 3 [1]: 2 participants | Nervous system disorders: Grade 4 [1]: 0 participants | Nervous system disorders: Grade 5 [1]: 1 (2.1) participants | Participants with any serious TEAEs: Any Grade [1]: 11 participants | Participants with any serious TEAEs: Grade 3 [1]: 8 participants | Participants with any serious TEAEs: Grade 4 [1]: 1 (2.1) participants | Participants with any serious TEAEs: Grade 5 [1]: 1 (2.1) participants | Pneumonia: Any Grade [1]: 1 participants | Pneumonia: Grade 3 [1]: 1 participants | Pneumonia: Grade 4 [1]: 0 participants | Pneumonia: Grade 5 [1]: 0 participants | Renal and urinary disorders: Any Grade [1]: 3 participants | Renal and urinary disorders: Grade 3 [1]: 3 participants | Renal and urinary disorders: Grade 4 [1]: 0 participants | Renal and urinary disorders: Grade 5 [1]: 0 participants | Respiratory, thoracic and mediastinal disorders: Any Grade [1]: 2 participants | Respiratory, thoracic and mediastinal disorders: Grade 3 [1]: 2 participants | Respiratory, thoracic and mediastinal disorders: Grade 4 [1]: 0 participants | Respiratory, thoracic and mediastinal disorders: Grade 5 [1]: 0 participants | Soft tissue infection: Any Grade [1]: 1 participants | Soft tissue infection: Grade 3 [1]: 1 participants | Soft tissue infection: Grade 4 [1]: 0 participants | Soft tissue infection: Grade 5 [1]: 0 participants | Spinal cord compression: Any Grade [1]: 1 participants | Spinal cord compression: Grade 3 [1]: 1 participants | Spinal cord compression: Grade 4 [1]: 0 participants | Spinal cord compression: Grade 5 [1]: 0 participants | Tremor: Any Grade [1]: 1 participants | Tremor: Grade 3 [1]: 1 participants | Tremor: Grade 4 [1]: 0 participants | Tremor: Grade 5 [1]: 0 participants | Urinary tract obstruction: Any Grade [1]: 1 participants | Urinary tract obstruction: Grade 3 [1]: 1 participants | Urinary tract obstruction: Grade 4 [1]: 0 participants | Urinary tract obstruction: Grade 5 [1]: 0 participants | Alopecia: Any Grade [2]: 4 participants | Alopecia: Grade 3 [2]: 0 participants | Alopecia: Grade 4 [2]: 0 participants | Alopecia: Grade 5 [2]: 0 participants | Anaemia: Any Grade [2]: 6 participants | Anaemia: Grade 3 [2]: 0 participants | Anaemia: Grade 4 [2]: 0 participants | Anaemia: Grade 5 [2]: 0 participants | Aspartate aminotransferase increased: Any Grade [2]: 5 participants | Aspartate aminotransferase increased: Grade 3 [2]: 1 participants | Aspartate aminotransferase increased: Grade 4 [2]: 0 participants | Aspartate aminotransferase increased: Grade 5 [2]: 0 participants | Blood alkaline phosphatase increased: Any Grade [2]: 8 participants | Blood alkaline phosphatase increased: Grade 3 [2]: 0 participants | Blood alkaline phosphatase increased: Grade 4 [2]: 0 participants | Blood alkaline phosphatase increased: Grade 5 [2]: 0 participants | Blood and lymphatic system disorders: Any Grade [2]: 7 participants | Blood and lymphatic system disorders: Grade 3 [2]: 0 participants | Blood and lymphatic system disorders: Grade 4 [2]: 1 participants | Blood and lymphatic system disorders: Grade 5 [2]: 0 participants | Blood creatinine increased: Any Grade [2]: 7 participants | Blood creatinine increased: Grade 3 [2]: 0 participants | Blood creatinine increased: Grade 4 [2]: 0 participants | Blood creatinine increased: Grade 5 [2]: 0 participants | Constipation: Any Grade [2]: 4 participants | Constipation: Grade 3 [2]: 0 participants | Constipation: Grade 4 [2]: 0 participants | Constipation: Grade 5 [2]: 0 participants | Cough: Any Grade [2]: 4 participants | Cough: Grade 3 [2]: 0 participants | Cough: Grade 4 [2]: 0 participants | Cough: Grade 5 [2]: 0 participants | Decreased appetite: Any Grade [2]: 5 participants | Decreased appetite: Grade 3 [2]: 0 participants | Decreased appetite: Grade 4 [2]: 0 participants | Decreased appetite: Grade 5 [2]: 0 participants | Diarrhoea: Any Grade [2]: 7 participants | Diarrhoea: Grade 3 [2]: 2 participants | Diarrhoea: Grade 4 [2]: 0 participants | Diarrhoea: Grade 5 [2]: 0 participants | Dyspnoea: Any Grade [2]: 4 participants | Dyspnoea: Grade 3 [2]: 1 participants | Dyspnoea: Grade 4 [2]: 0 participants | Dyspnoea: Grade 5 [2]: 0 participants | Fatigue: Any Grade [2]: 12 participants | Fatigue: Grade 3 [2]: 1 participants | Fatigue: Grade 4 [2]: 0 participants
